The values that follow come from PMC3445516 (PLoS ONE, 2012).

Assay in all cases: Ambit kinase profiling, competition binding
For test [1], the system named is EGFR(L747-T751del,Sins). On the set-up: species or system human. The conditions noted are these: for % Competition: 10 µM. As to the method: (§1) Also included in the kinase profile are four isoforms of PKC (δ, ε, η, θ) and eight isoforms of CAMKs (CAMKIα, δ, γ; CAMKIIα, β, δ, γ; CAMK4).
(§2) The global kinase profiling experiment was performed by Ambit Biosciences.

Test [2] deals with T1, RPS6KA1(Kin.Dom.2-C-terminal) (Homo sapiens, UniProt Q15418).
T1 construct: RPS6KA1(Kin.Dom.2-C-terminal); purchased Ambit Biosciences (KINOMEscan)
As to the method:
as §1, §2

For test [3], the target named is T2, PKC η (Homo sapiens, UniProt P24723).
T2 construct: purchased Ambit Biosciences (KINOMEscan)
The conditions noted are these: for competition: PKC η, 10 µM. As to the method: as §1, §2

Test [4] addresses T3, PAK4 (Homo sapiens, UniProt O96013).
T3 construct: purchased Ambit Biosciences (KINOMEscan)
As to the method: as §1, §2

In test [5] the target is T4, ERK2 (Homo sapiens, UniProt P28482).
T4 construct: purchased Ambit Biosciences (KINOMEscan)
The procedure:
as §1, §2

Test [6] addresses T5, DYRK1B (Homo sapiens, UniProt Q9Y463).
T5 construct: purchased Ambit Biosciences (KINOMEscan)
As to the method: as §1, §2

Test [7] concerns the target T6, BRAF(V600E) (Homo sapiens, UniProt P15056, V600E).
T6 construct: purchased Ambit Biosciences (KINOMEscan)
As to the method:
as §1, §2

Test [8] concerns the target T7, ERBB4 (Homo sapiens, UniProt Q15303).
T7 construct: purchased Ambit Biosciences (KINOMEscan)
As to the method: as §1, §2

The target of test [9] is T8, CSK (Homo sapiens, UniProt P41240).
T8 construct: purchased Ambit Biosciences (KINOMEscan)
The conditions noted are these: for % Competition: 10 µM. As to the method: as §1, §2

In test [10] the target is T9, LCK (Homo sapiens, UniProt P06239).
T9 construct: purchased Ambit Biosciences (KINOMEscan)
The procedure:
as §1, §2

Test [11] deals with T10, p38-alpha (Homo sapiens, UniProt Q16539).
T10 construct: purchased Ambit Biosciences (KINOMEscan)
The conditions noted are these: for % Competition: 10 µM. As to the method:
as §1, §2

Test [12] has as its target T11, TAOK1 (Homo sapiens, UniProt Q7L7X3).
T11 construct: purchased Ambit Biosciences (KINOMEscan)
T11 sequence (Q7L7X3 1-1001): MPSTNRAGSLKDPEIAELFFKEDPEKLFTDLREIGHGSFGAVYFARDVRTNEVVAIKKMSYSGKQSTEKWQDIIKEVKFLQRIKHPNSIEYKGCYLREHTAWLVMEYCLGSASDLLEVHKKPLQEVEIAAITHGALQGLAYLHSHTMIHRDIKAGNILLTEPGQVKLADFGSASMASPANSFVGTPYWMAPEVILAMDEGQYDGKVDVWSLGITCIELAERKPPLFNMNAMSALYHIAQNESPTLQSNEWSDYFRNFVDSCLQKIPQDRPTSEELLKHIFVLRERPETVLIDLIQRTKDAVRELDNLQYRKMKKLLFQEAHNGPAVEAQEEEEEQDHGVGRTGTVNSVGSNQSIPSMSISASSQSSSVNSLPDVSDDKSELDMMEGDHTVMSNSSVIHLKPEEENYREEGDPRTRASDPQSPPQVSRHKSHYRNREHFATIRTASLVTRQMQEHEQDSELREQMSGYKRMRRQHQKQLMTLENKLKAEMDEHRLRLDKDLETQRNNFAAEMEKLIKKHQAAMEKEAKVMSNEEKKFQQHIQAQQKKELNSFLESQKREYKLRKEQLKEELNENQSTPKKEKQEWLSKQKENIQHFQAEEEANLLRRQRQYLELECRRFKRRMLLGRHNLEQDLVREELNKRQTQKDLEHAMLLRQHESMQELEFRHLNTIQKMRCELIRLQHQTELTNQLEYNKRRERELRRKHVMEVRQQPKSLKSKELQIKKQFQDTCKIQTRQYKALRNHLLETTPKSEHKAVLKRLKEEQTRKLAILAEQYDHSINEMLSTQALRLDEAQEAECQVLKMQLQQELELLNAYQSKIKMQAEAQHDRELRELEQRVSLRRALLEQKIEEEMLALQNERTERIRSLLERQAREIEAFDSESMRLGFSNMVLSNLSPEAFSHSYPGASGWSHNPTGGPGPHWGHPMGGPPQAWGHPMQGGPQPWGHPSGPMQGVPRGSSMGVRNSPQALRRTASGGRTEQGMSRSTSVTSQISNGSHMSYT
The procedure:
as §1, §2

Test [13] deals with T12, PCTK3 (Homo sapiens, UniProt Q07002).
T12 construct: purchased Ambit Biosciences (KINOMEscan)
As to the method:
as §1, §2

In test [14] the target is T13, CDC2L2 (Homo sapiens, UniProt Q9UQ88).
T13 construct: purchased Ambit Biosciences (KINOMEscan)
T13 sequence (Q9UQ88 1-783): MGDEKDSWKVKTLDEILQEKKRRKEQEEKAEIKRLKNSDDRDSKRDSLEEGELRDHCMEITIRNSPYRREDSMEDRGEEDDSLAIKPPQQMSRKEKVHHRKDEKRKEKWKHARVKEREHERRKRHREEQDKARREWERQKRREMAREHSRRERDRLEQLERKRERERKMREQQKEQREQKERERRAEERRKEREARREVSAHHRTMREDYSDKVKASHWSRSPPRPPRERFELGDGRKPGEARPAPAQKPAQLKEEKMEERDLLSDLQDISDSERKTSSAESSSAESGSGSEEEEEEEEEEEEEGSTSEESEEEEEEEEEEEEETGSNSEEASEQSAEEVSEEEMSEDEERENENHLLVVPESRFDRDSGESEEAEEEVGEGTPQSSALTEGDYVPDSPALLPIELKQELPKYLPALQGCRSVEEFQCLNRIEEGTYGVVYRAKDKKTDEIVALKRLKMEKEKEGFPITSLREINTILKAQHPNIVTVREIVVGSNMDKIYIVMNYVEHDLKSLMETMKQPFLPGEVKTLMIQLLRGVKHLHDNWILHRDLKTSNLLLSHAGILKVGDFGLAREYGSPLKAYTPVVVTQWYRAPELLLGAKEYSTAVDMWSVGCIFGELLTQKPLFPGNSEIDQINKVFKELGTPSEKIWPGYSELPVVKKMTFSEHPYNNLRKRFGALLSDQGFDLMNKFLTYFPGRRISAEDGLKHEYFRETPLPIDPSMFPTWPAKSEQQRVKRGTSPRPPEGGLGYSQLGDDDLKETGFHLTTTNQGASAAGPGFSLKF
The procedure:
as §1, §2

Like-named read-outs stand apart in the source and are kept apart here.

T9 sequence (P06239 whole entry): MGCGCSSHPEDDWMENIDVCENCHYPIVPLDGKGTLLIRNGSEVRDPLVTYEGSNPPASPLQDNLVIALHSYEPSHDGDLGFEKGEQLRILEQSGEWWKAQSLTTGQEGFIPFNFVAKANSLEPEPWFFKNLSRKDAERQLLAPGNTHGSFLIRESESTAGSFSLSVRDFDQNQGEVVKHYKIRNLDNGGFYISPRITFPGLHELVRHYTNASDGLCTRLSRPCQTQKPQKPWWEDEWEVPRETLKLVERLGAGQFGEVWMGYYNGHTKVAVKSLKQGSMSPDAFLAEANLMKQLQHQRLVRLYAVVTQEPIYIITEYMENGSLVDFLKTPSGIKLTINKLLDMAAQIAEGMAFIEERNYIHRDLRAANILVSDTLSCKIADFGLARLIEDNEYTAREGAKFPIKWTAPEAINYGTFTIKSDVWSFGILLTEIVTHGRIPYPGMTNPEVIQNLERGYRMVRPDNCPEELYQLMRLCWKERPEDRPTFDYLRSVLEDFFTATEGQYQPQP
T10 sequence (Q16539 whole entry): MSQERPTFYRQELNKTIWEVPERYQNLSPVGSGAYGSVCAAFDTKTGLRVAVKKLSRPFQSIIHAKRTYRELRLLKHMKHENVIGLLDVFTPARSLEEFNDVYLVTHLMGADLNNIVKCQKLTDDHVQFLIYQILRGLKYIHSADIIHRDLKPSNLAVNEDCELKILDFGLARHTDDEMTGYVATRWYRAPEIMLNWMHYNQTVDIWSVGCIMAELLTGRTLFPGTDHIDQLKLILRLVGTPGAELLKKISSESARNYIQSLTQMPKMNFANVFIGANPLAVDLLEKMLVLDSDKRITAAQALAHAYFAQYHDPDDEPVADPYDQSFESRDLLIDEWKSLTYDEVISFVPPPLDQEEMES
T12 sequence (Q07002 whole entry): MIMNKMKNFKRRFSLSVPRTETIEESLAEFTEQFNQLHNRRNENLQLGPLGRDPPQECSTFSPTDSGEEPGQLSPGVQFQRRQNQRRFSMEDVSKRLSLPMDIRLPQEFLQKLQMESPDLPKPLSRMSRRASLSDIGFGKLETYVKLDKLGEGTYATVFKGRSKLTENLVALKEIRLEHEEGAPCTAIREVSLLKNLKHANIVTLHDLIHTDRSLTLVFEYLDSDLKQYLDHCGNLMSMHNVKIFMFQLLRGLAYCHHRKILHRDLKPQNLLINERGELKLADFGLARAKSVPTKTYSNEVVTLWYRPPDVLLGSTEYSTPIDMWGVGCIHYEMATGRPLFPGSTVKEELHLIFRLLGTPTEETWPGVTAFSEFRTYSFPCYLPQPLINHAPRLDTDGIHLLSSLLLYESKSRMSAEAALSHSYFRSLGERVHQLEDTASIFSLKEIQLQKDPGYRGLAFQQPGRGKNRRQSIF
T8 sequence (P41240 whole entry): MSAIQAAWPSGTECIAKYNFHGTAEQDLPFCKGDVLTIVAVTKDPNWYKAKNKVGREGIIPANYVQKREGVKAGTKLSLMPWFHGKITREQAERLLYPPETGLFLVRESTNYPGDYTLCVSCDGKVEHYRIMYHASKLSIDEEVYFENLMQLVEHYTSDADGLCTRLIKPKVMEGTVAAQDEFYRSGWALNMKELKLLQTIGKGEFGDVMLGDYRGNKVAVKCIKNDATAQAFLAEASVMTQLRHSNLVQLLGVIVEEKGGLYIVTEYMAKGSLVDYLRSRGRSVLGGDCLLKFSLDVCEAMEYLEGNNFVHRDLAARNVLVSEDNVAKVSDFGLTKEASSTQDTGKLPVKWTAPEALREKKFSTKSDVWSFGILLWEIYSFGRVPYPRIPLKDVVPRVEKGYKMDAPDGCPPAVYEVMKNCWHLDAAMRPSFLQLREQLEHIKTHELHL
T3 sequence (O96013 whole entry): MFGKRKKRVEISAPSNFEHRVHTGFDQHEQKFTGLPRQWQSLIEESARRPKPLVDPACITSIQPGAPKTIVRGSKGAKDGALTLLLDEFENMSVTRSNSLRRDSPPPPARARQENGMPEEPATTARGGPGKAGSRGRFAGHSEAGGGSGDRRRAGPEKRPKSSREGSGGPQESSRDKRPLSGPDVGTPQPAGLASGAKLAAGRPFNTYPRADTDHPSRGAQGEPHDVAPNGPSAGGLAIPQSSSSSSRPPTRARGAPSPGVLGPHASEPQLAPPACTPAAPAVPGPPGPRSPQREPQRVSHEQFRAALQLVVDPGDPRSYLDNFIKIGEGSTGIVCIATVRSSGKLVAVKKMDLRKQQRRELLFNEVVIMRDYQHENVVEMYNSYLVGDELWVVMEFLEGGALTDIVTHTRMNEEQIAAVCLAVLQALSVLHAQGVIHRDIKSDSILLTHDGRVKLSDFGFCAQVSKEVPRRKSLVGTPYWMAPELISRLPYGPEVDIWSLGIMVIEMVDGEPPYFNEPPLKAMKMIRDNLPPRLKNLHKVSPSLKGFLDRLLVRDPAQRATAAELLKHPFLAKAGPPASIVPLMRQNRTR
T4 sequence (P28482 whole entry): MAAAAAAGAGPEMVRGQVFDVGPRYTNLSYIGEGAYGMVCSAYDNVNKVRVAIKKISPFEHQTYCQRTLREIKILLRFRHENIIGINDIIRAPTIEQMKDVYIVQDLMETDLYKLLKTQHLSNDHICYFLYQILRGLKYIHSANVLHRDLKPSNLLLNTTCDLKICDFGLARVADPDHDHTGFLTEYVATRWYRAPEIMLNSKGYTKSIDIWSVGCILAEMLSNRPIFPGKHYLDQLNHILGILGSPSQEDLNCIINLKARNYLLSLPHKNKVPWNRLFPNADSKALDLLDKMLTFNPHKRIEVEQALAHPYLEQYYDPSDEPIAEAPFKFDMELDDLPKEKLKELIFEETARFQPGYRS
T2 sequence (P24723 whole entry): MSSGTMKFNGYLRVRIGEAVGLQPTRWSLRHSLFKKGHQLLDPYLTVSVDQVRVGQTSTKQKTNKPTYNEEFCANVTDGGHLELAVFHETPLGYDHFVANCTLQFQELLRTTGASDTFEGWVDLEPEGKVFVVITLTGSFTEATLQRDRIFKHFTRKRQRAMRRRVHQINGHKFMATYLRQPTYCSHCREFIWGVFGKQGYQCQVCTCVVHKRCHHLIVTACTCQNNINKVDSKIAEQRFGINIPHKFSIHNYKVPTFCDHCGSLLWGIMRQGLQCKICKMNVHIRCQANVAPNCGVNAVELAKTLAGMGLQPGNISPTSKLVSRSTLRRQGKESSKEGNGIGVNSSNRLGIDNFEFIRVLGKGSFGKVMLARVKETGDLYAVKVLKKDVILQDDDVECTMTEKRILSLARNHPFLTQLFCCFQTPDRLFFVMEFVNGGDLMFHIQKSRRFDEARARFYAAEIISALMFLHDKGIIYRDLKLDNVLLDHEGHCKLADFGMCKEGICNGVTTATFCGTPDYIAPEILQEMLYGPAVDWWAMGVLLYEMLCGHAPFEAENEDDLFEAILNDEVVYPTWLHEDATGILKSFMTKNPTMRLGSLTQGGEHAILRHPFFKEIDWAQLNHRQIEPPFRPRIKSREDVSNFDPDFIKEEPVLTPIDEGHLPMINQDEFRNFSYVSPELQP
T5 sequence (Q9Y463 whole entry): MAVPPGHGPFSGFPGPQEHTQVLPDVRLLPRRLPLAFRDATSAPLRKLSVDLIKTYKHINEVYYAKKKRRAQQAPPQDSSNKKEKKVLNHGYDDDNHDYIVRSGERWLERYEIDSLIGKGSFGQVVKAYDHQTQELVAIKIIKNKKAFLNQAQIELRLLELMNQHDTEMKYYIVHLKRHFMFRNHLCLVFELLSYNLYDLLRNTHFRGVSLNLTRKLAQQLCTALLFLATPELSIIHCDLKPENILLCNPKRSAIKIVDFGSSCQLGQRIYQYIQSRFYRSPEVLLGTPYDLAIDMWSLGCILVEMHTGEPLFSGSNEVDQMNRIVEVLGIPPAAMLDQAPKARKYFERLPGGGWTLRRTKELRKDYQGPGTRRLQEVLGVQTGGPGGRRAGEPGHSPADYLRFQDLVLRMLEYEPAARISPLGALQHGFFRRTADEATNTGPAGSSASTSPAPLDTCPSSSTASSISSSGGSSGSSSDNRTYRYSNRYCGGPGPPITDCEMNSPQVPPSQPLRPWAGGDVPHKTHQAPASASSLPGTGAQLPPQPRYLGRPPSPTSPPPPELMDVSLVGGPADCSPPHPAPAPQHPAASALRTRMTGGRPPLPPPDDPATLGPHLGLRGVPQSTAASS
T6 sequence (P15056 whole entry V600E): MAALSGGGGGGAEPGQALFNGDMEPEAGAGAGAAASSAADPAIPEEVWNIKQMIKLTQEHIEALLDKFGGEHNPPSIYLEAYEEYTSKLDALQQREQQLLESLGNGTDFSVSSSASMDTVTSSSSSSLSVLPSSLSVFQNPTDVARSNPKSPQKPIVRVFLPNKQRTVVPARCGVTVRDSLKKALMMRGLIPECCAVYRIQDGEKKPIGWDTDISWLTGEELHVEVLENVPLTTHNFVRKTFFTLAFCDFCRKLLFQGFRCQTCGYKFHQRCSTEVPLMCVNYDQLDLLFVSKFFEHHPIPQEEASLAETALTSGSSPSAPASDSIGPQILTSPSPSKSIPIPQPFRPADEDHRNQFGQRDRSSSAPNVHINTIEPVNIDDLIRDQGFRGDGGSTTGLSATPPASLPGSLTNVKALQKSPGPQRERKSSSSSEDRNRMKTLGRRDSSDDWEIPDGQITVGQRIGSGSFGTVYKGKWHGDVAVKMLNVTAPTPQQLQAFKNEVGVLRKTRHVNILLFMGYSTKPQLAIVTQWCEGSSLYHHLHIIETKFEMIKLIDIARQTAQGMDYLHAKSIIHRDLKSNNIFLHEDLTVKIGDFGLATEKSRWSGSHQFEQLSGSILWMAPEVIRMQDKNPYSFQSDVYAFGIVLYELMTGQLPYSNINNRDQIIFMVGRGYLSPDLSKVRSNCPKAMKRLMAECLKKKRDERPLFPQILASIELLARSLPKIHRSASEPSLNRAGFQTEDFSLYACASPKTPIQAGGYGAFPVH

With `CC(O)CNc1cc(-c2[nH]c3cccnc3c2-c2ccc(F)cc2)ccn1` (stereo not drawn) [Compound 140], the “% Competition” value in test [1] is 90%; in test [9] it was below 50%; in [11] it was 100%. In addition, the inhibition at 10 µM was 87% in test [2] (read-out: % Competition); below 50% in test [4] (read-out: % Competition); below 50% in test [5] (read-out: % Competition); below 50% in [6] (read-out: % Competition); 78% in [7] (read-out: % Competition); below 50% in [8] (read-out: % Competition). Besides, the inhibition at 10 µM is below 50% in test [10] (read-out: % Competition), 67% in test [12] (read-out: % Competition), below 50% in test [13] (read-out: % Competition) and below 50% in test [14] (read-out: % Competition). Besides, in [3], the competition was below 50%.
As to `Fc1ccc(-c2c(-c3ccncc3)[nH]c3nccnc23)cc1` [RO1155697-000-005], the “Percent Competition” value in [1] (compound concentration 10 uM) was found to be 97%; in [9] (compound concentration 10 uM) it was 71%; in test [11] (compound concentration 10 uM), 100%. Also, the inhibition at 10 µM is 92% in test [2] (RPS6KA1(Kin.Dom.2-C-terminal), compound concentration 10 uM, read-out: Percent Competition); below 50% in test [3] (PRKCH, compound concentration 10 uM, read-out: Percent Competition); 82% in test [4] (PAK4, compound concentration 10 uM, read-out: Percent Competition); 87% in test [5] (ERK2, compound concentration 10 uM, read-out: Percent Competition); 79% in test [6] (DYRK1B, compound concentration 10 uM, read-out: Percent Competition); 97% in test [7] (BRAF(V600E), compound concentration 10 uM, read-out: Percent Competition). Besides, the inhibition at 10 µM in [8] (ERBB4, compound concentration 10 uM, read-out: Percent Competition) stood at 80%; in test [10] (LCK, compound concentration 10 uM, read-out: Percent Competition), 71%; in test [12] (TAOK1, compound concentration 10 uM, read-out: Percent Competition), 99%; in test [13] (PCTK3, compound concentration 10 uM, read-out: Percent Competition) it was 77%; in [14] (CDC2L2, compound concentration 10 uM, read-out: Percent Competition), 92%.
In the case of `Fc1ccc(-c2c(-c3ccncc3)[nH]c3nccnc23)cc1` [Compound 122], the “% Competition” value amounted to 97% in test [1], 71% in test [9] and 100% in test [11]. In addition, the inhibition at 10 µM in test [2] (RPS6KA1(Kin.Dom.2-C-terminal), 10 µM, read-out: % Competition) stood at 92%; in test [4] (PAK4, 10 µM, read-out: % Competition), 82%; in [5] (ERK2, 10 µM, read-out: % Competition), 87%; in test [6] (DYRK1B, 10 µM, read-out: % Competition), 79%; in test [7] (BRAF(V600E), 10 µM, read-out: % Competition) it was 97%; in test [8] (ERBB4, 10 µM, read-out: % Competition), 80%. Further, the inhibition at 10 µM in test [10] (LCK, 10 µM, read-out: % Competition) is 71%; in [12] (TAOK1, 10 µM, read-out: % Competition) it was 99%; in test [13] (PCTK3, 10 µM, read-out: % Competition), 77%; in [14] (CDC2L2, 10 µM, read-out: % Competition) it was 92%. In addition, in [3], the competition is below 50%.
